Results published in US20200205318A1, “HEAT TRANSFER FLUIDS, METHODS AND SYSTEMS” (priority 2018, published 2020).

Legend:
[1] = Acute inhalation toxicity (OECD Guideline No. 403); format: in vivo; details: statement in words
Excerpt: LC50 is a measure of the acute toxicity of a compound. The acute inhalation toxicity of a compound can be assessed using the method described in the OECD Guideline for Testing of Chemicals No. 403 “Acute Inhalation Toxicity” (2009), Method B.2. (Inhalation) of Commission Regulation (EC) No. 440/2008.

[2] = Flammability / flash point (ASTM D3828, NFPA 30); format: physicochemical
Description: The flash pint of a thermal management fluid refers the lowest temperature at which vapors of the liquid will keep burning after the ignition source is removed as determined in accordance with ASTM D3828.
“Non-flammable” in the context of a thermal management composition or fluid means compounds or compositions which are determined to be non-flammable. The flash point of a thermal management composition or fluid refers the lowest temperature at which vapors of the composition will keep burning after the ignition source is removed as determined in accordance with ASTM D3828.

[3] = Dielectric constant (ASTM D2477-07); format: physicochemical; details: at 22° C.
Description: (§1) Applicants have unexpectedly discovered that TFMCB not only meets the challenging performance requirements for high temperature heat transfer applications and for electronic cooling but also satisfies exacting environmental and safety requirements. […] In particular, applicants have determined that TFMCB has a measured dielectric constant of 20 at 22° C. as determined by ASTM D2477-07 and has a measured electrical conductivity of less than 10 nS/cm at 22° C. as determined by ASTM D 2624.

[4] = Electrical conductivity (ASTM D 2624); format: physicochemical; details: at 22° C.
Description: as §1

Structure (SMILES): FC(F)(F)C1(F)CCC1(F)F (centres unmarked) [TFMCB, 1-trifluoromethyl-1,2,2-trifluorocyclobutane]
- toxicity [1]: low levels of toxicity
- flammability [2]: non-flammable
- flash point ([2]; ASTM D3828): no flash point below 100° F
- dielectric constant [3]: 20
- electrical conductivity [4]: less than 10 nS/cm
